Experimental data as given in patent EP2241565A1, “Aurora kinase inhibitors compounds” (Universität Leipzig, priority 2009, dated 2010).
Entries after “also recorded” stand apart in the source; their conditions may differ.

Assays:
[1] = target: T1, EGFR (Homo sapiens, UniProt P00533); assay: RTK-Assay (ELISA, chemiluminescence); format: biochemical
T1 construct: GST (N); purchased Biomol
Protocol: (§1) To determine the IC50 of receptor-tyrosine-kinase an assay based on the ELISA-principle using kinases from Biomol (N-terminally fused to GST), POD-coupled antibody from Calbiochem (PY20) and BM chemiluminescence ELISA substrate from Roche was followed.
(§2) In short, a white 96 wells microplate was incubated overnight with 100 µl/well of the substrate solution (poly-Glu-Tyr diluted with PBS to 100 µg/ml) at 4 °C. The solution was removed and the plate was washed twice for 2 min with PBS-T. Afterwards the kinase solution (50 µl/well)( KDR (VEGFR2), 5 ng; Flt4 (VEGFR3), 20 ng; EGFR, 5 ng; IGFR, 15 ng; FGFR, 10 ng and Tie2, 20 ng) and the inhibitor solution (25 µl/well) were added to each well. To perform positive and negative control, 5% aqueous DMSO (25 µl/well) were used instead of inhibitor solution. Addition of ATP solution (25 µl/well) started the reaction, whereas 40 mM MnCl2 solution (25 µl/well) was added to the negative control instead of ATP. After incubation under mild shaking conditions for 30 min at rt the plate was washed with PBS-T (3 x 2 min) and subsequently incubated with antibody solution (anti-Phosphotyrosine-antibody (POD-coupled) diluted 1:10.000 in PBS-T + 0,2% (m/v) BSA)(100 µl/well) for 1 h again while shaking. In the end the plate was washed with PBS-T (3x5 min) and provided with the chemiluminescence substrate (50 µl/well). After 3 min the occurring luminescence was measured using a luminometer. A positive control was measured without inhibitor to determine the activity of the kinase, a negative control without inhibitor and ATP to abstract the background signal from the results. For determination of IC50 values, the relative luminescence units per second (RLU/s) were blotted against the inhibitor concentrations. In doing so each concentration measurement was done triplicate and at least 5 different inhibitor concentrations were used to determine IC50 value.
(§3) This assay is based on the ELISA-principle using kinases from Biomol (N-terminally fused to GST), POD-coupled antibody from Calbiochem (PY20) and BM chemiluminescence ELISA substrate from Roche.
(§4) Each well of a 96 well microplate (white, flat bottom, Greiner, Lumitrac600) was covered with a kinase polypeptide substrate containing glutamate and tyrosine. The substrate was incubated with a kinase, a defined inhibitor concentration and ATP. After kinase inhibitor depending phosphorylation of the substrate a POD-coupled antibody was added that selectively binds to phosphorylated tyrosine. Finally, a chemiluminescence reagent was added and light emission measured using an Orion Microplate Luminometer (Berthold).
(§5) The detected counts correlate directly with the amount of phosphorylated tyrosine and indirectly with the activity of the inhibitor.
(§6) A positive control was measured without inhibitor to determine the activity of the kinase, a negative control without inhibitor and ATP to abstract the background signal from the results. For determination of IC50 values, the relative luminescence units per second (RLU/s) were blotted against the inhibitor concentrations. In doing so each concentration measurement was done triplicate and at least 5 different inhibitor concentrations were used to determine IC50 value.
(§7) The following solutions were prepared for the receptor-tyrosine-kinase assay: - PBS (10x) 1 g KCl, 1 g KH2PO4, 40 g NaCl, 13.2 g Na2HPO4, ad 1 l H2O - PBST (1x) PBS 10x + 0,5% Tween20 → diluted 1:10 - substrate poly-Glu-Tyr 4:1 (10mg/ml in PBS) → diluted with PBS to 100µg/ml - kinase buffer 100mM HEPES, 100mM NaCl, 0.1mM Na3VO4 - kinase solution kinase buffer, kinase stock solution diluted to reach the following concentration defined in the table Table "kinase dilution" […]

[2] = target: T2, Tie2 (Homo sapiens, UniProt Q02763); assay: RTK-Assay (ELISA, chemiluminescence); format: biochemical; conditions: read-out: IC50 Tie-2
T2 construct: GST (N); purchased Biomol
Protocol: as §1, §2, §3, §4, §5, §6, §7

[3] = target: T3, Flt-4 (VEGFR3) (Homo sapiens, UniProt P35916); assay: RTK-Assay (ELISA, chemiluminescence); format: biochemical; conditions: read-out: IC50 Flt-4 (VEGFR 3)
T3 construct: GST (N); purchased Biomol
Protocol: as §1, §2, §3, §4, §5, §6, §7

[4] = target: T4, IGFR (Homo sapiens, UniProt P08069); assay: RTK-Assay (ELISA, chemiluminescence); format: biochemical
T4 construct: GST (N); purchased Biomol
Protocol: as §1, §2, §3, §4, §5, §6, §7

[5] = tested on: HeLa cells; assay: Fixed cell analysis of mitotic phenotypes (fluorescence / immunofluorescence); format: cell-based, human; conditions: 40 µM, 24 h
Protocol: For fixed cell analysis, HeLa or H2B-GFP/mRFP-αTubulin HeLa cells were grown on glass coverslips and treated as described above. Cells were fixed in ice cold methanol and mounted in Mowiol. Alternatively, non fluorescent HeLa were treated and subjected to immunofluorescence with anti-tubulin antibodies (Sigma, DM1A) and Hoechst to stain the DNA. Cells were observed on a Leica DM16000B microscope with the HCX PL APO CS 63x 1.4 objective. Images were taken with a Leica DFC 350FX camera, controlled by Leica Application Suit (LAS-AF 6000) software and processed with Adobe Photoshop.
To get a better idea about the defects causing cell division failure in cells treated with (C), we examined fixed cells to better visualize the chromosomes and the microtubules. […] In parallel, standard HeLa cells were treated in the same way. The cells were fixed and processed for immunofluorescence with anti-tubulin antibodies to visualize the microtubules and Hoechst to stain the DNA.

[6] = tested on: hTERT-RPE1 cells; assay: Cilia disassembly assay; format: cell-based; conditions: pretreatment 40 µM, serum stimulation after 48 h starvation
Protocol: Cilia assembly and disassembly assays were performed as described in Pugacheva et al., Cell 2007, 129, 1351-1363. […] For analysis of cilia disassembly, cilia were assembled by 48 h starvation in Opti-MEM, and disassembled by incubation in DMEM-10% serum. Cells were fixed after 2 and 4 h. […] To visualize the centrosomes and the cilia, fixed cells were immunostained with anti-γ-tubulin (Sigma GTU88) and anti-acetylated-tubulin (Sigma), and DNA was stained with Hoechst.

T1 sequence (P00533 25-1210, species assumed): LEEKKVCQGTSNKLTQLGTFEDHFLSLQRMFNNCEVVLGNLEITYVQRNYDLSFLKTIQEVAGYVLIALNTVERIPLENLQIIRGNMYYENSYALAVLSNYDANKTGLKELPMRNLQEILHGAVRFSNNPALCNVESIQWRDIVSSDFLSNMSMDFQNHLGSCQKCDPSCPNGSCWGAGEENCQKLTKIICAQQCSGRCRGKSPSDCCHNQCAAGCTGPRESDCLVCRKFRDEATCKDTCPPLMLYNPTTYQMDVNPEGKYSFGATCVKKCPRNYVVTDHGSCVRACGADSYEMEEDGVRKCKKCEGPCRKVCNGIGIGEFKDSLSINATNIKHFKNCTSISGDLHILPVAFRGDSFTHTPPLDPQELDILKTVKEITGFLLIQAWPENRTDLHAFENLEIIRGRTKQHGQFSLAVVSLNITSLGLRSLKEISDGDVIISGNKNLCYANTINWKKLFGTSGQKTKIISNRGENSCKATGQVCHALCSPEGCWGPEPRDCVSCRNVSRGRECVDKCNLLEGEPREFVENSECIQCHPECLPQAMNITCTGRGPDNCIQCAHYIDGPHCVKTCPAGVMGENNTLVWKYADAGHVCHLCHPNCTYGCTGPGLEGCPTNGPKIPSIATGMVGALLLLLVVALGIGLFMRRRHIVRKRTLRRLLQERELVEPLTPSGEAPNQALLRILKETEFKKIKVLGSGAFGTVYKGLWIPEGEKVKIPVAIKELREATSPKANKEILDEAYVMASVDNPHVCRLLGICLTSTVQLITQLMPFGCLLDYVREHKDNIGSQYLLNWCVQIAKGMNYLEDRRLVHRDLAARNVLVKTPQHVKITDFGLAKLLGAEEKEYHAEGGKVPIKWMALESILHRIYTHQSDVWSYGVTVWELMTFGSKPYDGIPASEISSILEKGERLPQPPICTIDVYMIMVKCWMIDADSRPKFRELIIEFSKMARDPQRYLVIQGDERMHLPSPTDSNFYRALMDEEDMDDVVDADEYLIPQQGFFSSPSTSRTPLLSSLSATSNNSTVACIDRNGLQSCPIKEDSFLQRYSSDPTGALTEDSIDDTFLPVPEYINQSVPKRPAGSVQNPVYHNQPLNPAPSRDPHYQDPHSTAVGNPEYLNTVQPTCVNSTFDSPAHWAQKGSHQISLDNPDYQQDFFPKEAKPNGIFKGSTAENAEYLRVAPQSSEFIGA
T4 sequence (P08069 31-1367): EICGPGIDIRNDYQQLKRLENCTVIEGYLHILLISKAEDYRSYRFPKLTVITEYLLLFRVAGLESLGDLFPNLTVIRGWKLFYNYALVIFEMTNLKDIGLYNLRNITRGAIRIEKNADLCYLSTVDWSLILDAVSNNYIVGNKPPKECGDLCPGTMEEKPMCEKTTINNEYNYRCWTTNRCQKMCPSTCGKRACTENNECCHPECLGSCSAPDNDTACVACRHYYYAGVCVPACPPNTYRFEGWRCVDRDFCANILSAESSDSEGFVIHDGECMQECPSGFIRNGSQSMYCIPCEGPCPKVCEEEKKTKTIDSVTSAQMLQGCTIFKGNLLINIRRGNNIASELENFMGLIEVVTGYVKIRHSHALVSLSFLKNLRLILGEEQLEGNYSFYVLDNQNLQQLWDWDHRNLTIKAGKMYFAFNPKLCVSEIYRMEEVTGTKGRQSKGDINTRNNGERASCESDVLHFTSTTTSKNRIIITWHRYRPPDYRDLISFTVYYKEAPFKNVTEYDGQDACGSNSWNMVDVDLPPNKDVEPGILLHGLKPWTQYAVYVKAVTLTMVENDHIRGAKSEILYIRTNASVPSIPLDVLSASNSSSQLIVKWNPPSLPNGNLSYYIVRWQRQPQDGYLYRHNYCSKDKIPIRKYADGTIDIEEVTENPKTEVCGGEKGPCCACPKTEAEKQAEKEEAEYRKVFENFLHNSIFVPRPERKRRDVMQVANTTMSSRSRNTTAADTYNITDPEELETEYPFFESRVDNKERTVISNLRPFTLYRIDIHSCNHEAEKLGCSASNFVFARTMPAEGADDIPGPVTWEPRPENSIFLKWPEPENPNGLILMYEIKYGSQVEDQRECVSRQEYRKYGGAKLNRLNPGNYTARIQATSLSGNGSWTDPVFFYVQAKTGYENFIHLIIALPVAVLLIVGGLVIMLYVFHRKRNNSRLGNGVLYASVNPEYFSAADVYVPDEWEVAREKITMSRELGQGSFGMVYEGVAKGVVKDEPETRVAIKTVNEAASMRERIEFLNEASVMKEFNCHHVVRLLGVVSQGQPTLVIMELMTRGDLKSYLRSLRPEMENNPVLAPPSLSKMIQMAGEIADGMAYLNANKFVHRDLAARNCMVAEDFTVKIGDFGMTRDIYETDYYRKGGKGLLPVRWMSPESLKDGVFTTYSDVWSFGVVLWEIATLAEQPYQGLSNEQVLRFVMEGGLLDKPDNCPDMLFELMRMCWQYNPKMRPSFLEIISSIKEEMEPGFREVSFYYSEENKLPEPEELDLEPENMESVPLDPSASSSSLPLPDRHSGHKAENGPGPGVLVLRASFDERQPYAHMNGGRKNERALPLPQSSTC
T3 sequence (P35916 25-1363, species assumed): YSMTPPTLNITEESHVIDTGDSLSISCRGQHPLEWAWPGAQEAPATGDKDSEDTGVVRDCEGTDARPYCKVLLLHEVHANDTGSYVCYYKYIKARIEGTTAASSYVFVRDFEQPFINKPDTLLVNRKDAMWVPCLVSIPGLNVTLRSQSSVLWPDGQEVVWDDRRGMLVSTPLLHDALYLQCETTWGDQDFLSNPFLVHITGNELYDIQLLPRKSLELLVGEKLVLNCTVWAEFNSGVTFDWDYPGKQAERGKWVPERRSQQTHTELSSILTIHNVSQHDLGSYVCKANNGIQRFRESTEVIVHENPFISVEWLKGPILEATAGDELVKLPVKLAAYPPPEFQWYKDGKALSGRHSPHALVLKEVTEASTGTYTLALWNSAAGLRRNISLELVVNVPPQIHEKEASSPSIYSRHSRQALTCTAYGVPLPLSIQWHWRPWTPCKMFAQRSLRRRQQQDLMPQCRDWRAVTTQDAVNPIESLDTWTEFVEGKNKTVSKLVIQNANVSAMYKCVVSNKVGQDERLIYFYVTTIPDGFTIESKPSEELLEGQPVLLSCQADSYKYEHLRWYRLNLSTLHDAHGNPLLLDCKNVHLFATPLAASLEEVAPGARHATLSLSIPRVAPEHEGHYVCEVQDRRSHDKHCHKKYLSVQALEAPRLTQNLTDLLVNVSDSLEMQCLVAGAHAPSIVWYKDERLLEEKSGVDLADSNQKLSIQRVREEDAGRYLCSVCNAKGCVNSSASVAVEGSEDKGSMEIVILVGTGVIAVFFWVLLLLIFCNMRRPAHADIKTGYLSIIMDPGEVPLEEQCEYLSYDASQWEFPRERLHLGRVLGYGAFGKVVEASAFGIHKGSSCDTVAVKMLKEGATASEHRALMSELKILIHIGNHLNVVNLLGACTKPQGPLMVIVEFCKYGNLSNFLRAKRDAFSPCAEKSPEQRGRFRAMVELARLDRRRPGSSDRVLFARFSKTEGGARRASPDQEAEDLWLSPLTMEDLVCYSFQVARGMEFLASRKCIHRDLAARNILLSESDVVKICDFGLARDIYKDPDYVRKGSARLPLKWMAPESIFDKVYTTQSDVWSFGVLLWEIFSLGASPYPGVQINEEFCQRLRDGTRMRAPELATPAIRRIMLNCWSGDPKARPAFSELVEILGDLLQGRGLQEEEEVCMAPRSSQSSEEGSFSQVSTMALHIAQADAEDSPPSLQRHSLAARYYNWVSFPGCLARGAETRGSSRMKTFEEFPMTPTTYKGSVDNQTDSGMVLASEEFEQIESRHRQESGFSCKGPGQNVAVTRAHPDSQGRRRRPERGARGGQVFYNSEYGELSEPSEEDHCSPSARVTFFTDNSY
T2 sequence (Q02763 23-1124, species assumed): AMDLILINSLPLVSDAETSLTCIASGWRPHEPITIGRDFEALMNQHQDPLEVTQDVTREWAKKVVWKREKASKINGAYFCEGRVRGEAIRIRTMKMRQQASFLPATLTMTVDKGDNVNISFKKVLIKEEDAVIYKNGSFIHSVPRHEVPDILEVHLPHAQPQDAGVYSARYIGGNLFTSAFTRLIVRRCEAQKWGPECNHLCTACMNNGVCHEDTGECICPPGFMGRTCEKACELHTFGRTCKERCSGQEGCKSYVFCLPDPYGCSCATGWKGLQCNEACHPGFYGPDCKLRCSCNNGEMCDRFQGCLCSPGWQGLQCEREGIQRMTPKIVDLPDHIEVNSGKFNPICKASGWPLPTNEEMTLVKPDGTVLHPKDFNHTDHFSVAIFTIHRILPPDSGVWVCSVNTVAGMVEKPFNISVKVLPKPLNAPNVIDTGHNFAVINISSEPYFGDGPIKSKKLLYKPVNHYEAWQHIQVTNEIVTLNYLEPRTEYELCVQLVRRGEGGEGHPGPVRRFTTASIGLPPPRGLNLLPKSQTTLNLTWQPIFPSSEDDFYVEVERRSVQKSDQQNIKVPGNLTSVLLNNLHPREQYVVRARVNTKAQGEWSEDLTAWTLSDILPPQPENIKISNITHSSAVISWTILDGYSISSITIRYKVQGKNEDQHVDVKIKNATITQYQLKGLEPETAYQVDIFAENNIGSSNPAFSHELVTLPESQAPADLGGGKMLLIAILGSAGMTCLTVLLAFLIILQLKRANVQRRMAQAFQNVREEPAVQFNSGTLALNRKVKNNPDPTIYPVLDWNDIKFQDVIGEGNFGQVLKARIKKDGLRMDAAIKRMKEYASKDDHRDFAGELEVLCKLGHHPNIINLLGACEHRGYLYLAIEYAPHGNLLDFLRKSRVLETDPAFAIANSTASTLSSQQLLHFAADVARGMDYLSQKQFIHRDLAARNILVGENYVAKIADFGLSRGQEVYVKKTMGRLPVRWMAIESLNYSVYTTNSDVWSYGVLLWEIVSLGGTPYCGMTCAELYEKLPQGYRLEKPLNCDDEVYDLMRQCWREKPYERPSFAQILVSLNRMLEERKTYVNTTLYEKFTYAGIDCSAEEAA

**Q.** `CC(C)Nc1nc(-c2ccco2)nc2ccc(/C=C/C(C)(C)O)cc12` [Compound (A), (E)-4-(2-(Furan-2-yl)-4-(isopropylamino)quinazolin-6-yl)-2-methylbut-3-en-2-ol] was tested. Which IC50 [1] did it give?
**A.** > 100 µM

**Q.** And the IC50 [2]?
**A.** > 100 µM

**Q.** What about the IC50 [3] of the same molecule?
**A.** 4.24 µM

**Q.** And the IC50 [4]?
**A.** 41.5 µM

**Q.** `CC(C)Nc1nc(-c2ccco2)nc2ccc(C#CCO)cc12` [Compound (C), 3-(2-(Furan-2-yl)-4-(isoiproipylamino)quinazolin-6-yl)prop-2-yn-l-ol] was tested. Which “mitotic phenotype of fixed cells” value [5] did it give?
**A.** increased formation of multipolar spindles and other abnormal mitotic structures; also recorded: large proportion of abnormal mitotic spindles

**Q.** And the cilia disassembly [6]?
**A.** strongly inhibited; also recorded: impaired

**Q.** What about the IC50 [1] of the same molecule?
**A.** > 100 µM

**Q.** And the IC50 [2]?
**A.** > 100 µM

**Q.** What about the IC50 [3] of the same molecule?
**A.** > 100 µM

**Q.** And the IC50 [4]?
**A.** > 100 µM
